Values quoted from earlier work in patent US20050266042A1, “Methods and apparatus for treatment of aneurysmal tissue” (Medtronic Vascular, Inc., priority 2004, published 2005).

Conditions: for route of elimination / clearance: in vivo

Row | SMILES | route of elimination / clearance | other results
1 | C[C@H](CS)C(=O)N1CCC[C@H]1C(=O)O [captopril] | – | bioavailability (given orally): about 75%
2 | CCC(=O)O[C@@H](O[P@](=O)(CCCCc1ccccc1)CC(=O)N1C[C@H](C2CCCCC2)C[C@H]1C(=O)O)C(C)C [fosinopril] | balanced elimination by the liver and kidneys | –
3 | NCCCC[C@H](N[C@@H](CCc1ccccc1)C(=O)O)C(=O)N1CCC[C@H]1C(=O)O [lisinopril] | – | time to peak concentrations in the plasma (oral administration): about 7 hours
4 | CCOC(=O)[C@H](CCc1ccccc1)N[C@@H](C)C(=O)N1CC2(C[C@H]1C(=O)O)SCCS2 [spirapril] | balanced elimination by the liver and kidneys | –
